According to ChEMBL document CHEMBL5241098, “Progress in the development of small molecular inhibitors of the Bruton's tyrosine kinase (BTK) as a promising cancer therapy” (Bioorg Med Chem, 2021):
pEC50, pIC50: −log10 of the molar value.

Key:
[1] = target: T1, Protein cereblon/Tyrosine-protein kinase BTK (Homo sapiens, UniProt Q06187+Q96SW2, C481S); experiment: PROTAC activity at CRBN/BTK C481S mutant in human HBL1 cells assessed as decrease in BTK C481S level incubated for 36 hrs by Western blot analysis; assay type: cell-based
[2] = Antiproliferative activity against human MINO cells assessed as reduction in cell viability incubated for 72 hrs by CellTiter Glo luminescence assay
JeKo-1 = experiment: Antiproliferative activity against BTK knockout human JeKo-1 cells assessed as reduction in cell viability incubated for 72 hrs by CellTiter Glo luminescence assay; conditions: JeKo-1, 72 h
Maver1 = experiment: Antiproliferative activity against human MAVER-1 cells assessed as reduction in cell viability incubated for 72 hrs by CellTiter Glo luminescence assay; conditions: Maver1, 72 h
[3] = target: T2, Tyrosine-protein kinase BTK (Homo sapiens, UniProt Q06187); experiment: Inhibition of BTK (unknown origin) incubated for 40 mins in the presence of ATP by scintillation based radiometric protein kinase assay
Z-138 = experiment: Antiproliferative activity against human Z138 cells assessed as reduction in cell viability incubated for 72 hrs by CellTiter Glo luminescence assay; conditions: Z-138, 72 h
[4] = target: Tyrosine-protein kinase Lck (Homo sapiens, UniProt P06239); experiment: Inhibition of LCK (unknown origin)
[5] = target: T2, Tyrosine-protein kinase BTK; experiment: Competitive inhibition of recombinant human BTK incubated for 10 mins in the presence of ATP by mobility shift assay
A549 = experiment: Antiproliferative activity against human A549 cells assessed as inhibition of cell growth
OCI-Ly10 = experiment: Antiproliferative activity against human OCILY10 cells assessed as inhibition of cell growth
[6] = Antiproliferative activity against human MINO cells assessed as inhibition of cell growth
[7] = target: T3, Protein cereblon/Tyrosine-protein kinase BTK (Homo sapiens, UniProt Q06187+Q96SW2); experiment: PROTAC activity at CRBN/BTK in human MINO cells assessed as decrease in BTK level by measuring maximal efficacy incubated for 24 hrs by Western blot analysis relative to control; assay type: cell-based
Target sequence in this assay (Q06187 2-659 limits assumed): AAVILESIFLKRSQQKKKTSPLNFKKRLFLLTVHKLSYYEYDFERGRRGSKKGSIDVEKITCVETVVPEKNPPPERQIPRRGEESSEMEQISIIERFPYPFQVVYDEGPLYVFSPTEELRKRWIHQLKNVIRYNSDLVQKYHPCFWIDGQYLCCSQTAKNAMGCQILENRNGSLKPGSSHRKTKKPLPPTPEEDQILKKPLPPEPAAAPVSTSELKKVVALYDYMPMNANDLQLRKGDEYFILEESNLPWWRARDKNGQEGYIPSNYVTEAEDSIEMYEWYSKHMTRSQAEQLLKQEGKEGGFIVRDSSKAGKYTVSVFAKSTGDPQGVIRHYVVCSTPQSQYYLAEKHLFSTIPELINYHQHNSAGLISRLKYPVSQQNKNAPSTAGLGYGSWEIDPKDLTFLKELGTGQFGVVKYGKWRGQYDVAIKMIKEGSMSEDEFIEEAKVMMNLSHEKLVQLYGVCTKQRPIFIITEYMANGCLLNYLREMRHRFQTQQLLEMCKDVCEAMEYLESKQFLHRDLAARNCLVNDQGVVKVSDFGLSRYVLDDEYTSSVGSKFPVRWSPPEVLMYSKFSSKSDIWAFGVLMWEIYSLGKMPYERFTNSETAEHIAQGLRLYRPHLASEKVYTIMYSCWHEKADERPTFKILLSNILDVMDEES
Target sequence in this assay (Q96SW2 whole entry partner): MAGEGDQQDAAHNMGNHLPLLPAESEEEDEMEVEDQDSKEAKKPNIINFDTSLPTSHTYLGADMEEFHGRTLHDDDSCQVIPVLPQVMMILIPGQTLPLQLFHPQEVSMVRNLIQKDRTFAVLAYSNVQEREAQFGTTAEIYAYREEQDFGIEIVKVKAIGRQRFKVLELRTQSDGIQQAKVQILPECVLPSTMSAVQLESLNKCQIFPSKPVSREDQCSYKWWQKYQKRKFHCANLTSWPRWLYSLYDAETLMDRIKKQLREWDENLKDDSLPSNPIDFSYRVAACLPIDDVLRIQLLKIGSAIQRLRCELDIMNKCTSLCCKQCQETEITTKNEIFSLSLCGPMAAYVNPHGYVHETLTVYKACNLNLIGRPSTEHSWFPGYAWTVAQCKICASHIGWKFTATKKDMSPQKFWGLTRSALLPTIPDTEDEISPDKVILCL

[8] = target: T3, Protein cereblon/Tyrosine-protein kinase BTK; experiment: PROTAC activity at CRBN/BTK in human MINO cells assessed as decrease in BTK level incubated for 24 hrs by Western blot analysis; assay type: cell-based
Target sequence in this assay (Q06187 whole entry): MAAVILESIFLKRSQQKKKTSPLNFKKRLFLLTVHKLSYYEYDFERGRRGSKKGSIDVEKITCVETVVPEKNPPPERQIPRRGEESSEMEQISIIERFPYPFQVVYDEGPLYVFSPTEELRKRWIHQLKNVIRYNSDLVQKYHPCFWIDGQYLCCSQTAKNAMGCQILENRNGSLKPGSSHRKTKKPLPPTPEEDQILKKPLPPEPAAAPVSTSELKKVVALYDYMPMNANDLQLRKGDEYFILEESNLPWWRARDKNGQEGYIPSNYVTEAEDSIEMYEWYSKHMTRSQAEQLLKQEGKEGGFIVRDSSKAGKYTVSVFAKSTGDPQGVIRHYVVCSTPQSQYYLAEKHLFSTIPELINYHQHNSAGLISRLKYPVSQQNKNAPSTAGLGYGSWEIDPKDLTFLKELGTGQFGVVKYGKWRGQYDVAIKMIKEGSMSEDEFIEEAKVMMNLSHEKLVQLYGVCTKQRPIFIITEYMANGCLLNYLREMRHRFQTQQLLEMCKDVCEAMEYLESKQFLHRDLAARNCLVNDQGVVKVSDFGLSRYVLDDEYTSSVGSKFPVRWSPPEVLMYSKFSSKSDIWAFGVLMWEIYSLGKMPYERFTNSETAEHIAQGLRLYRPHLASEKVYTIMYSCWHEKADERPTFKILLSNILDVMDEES
Target sequence in this assay (Q96SW2 whole entry): as the sequence (Q96SW2 whole entry partner) above

[9] = target: T2, Tyrosine-protein kinase BTK; experiment: Inhibition of BTK (unknown origin) in the presence of ATP
[10] = Inhibition of CDK2/Cyclin E (unknown origin) in the presence of ATP; set-up: species or system Homo sapiens
[11] = target: T1, Protein cereblon/Tyrosine-protein kinase BTK; experiment: PROTAC activity at CRBN/BTK C481S mutant in human Ramos cells assessed as decrease in BTK C481S level incubated for 48 hrs by immunoblot analysis; assay type: cell-based

T2 sequence (Q06187 whole entry): as the sequence (Q06187 whole entry) above
T1 sequence (Q06187 2-659 C481S limits assumed, stated change not applied): as the sequence (Q06187 2-659 limits assumed) above, with C480S counted along it
T1 sequence (Q96SW2 whole entry, stated change not applied): as the sequence (Q96SW2 whole entry partner) above
Tyrosine-protein kinase Lck, sequence (P06239 whole entry): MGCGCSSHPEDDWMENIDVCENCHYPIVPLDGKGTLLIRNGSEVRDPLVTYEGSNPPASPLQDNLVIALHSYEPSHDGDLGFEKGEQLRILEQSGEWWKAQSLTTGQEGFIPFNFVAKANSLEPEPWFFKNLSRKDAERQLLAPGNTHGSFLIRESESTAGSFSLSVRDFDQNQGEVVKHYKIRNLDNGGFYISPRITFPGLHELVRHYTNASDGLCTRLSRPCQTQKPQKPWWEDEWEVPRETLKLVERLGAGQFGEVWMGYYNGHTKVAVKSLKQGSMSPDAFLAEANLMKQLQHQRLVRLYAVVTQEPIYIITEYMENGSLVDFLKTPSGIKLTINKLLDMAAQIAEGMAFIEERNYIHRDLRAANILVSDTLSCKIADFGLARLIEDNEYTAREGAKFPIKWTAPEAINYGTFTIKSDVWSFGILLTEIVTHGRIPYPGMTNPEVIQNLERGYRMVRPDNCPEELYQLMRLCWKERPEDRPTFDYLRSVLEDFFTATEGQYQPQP

## Nc1ncnc2c1c(-c1ccc(Oc3ccccc3)cc1)nn2C1CCCN(C(=O)c2cn(CCOCCOCCOCCCc3cccc4c3CN(C3CCC(=O)NC3=O)C4=O)nn2)C1 (stereo unspecified)
[1]
  pEC50: 7.54

## C=CC(=O)Nc1cccc(Cn2nc(-c3ccc(Oc4ccccc4)cc3)c3c(N)ncnc32)c1
[2]
  pIC50: 5.89
JeKo-1
  pIC50: 5.89
Maver1
  pIC50: 5.59
[3]
  pIC50: 7.30
Z-138
  pIC50: 5.55

## Nc1ncnc2c1c(-c1ccc(Oc3ccccc3)cc1)nn2Cc1ccccc1F
[2]
  pIC50: 4.95
JeKo-1
  pIC50: 4.48
Maver1
  pIC50: 4.46
[3]
  pIC50: 7.41
Z-138
  pIC50: 4.36

## O=C(c1ccc(Oc2ccccc2)cc1Cl)c1c[nH]c2ncnc(NC3CC[C@@H](CO)OC3)c12 (stereo partly specified)
[4]
  pIC50: 8.41

## Nc1ncnc2c1c(-c1ccc(Oc3ccccc3)nc1)nn2C1CCCN(C(=O)CCl)C1 (stereo unspecified)
JeKo-1
  pIC50: 6.40
Maver1
  pIC50: 6.40

## C=C(Cl)C(=O)N1CCC(n2nc(-c3ccc(Oc4ccccc4)cc3)c3c(N)ncnc32)CC1
[5]
  pIC50: 8.60
A549
  pIC50: 5.41
OCI-Ly10
  pIC50: 6.70
[6]
  pIC50: 6.25

## Nc1ncnc2c1c(-c1ccc(Oc3ccccc3)cc1)nn2C1CCCN(C(=O)/C=C/CCCCCOCCOCCOCCOCCOc2cccc3c2C(=O)N(C2CCC(=O)NC2=O)C3=O)C1 (stereo unspecified)
[7]
  Emax: 90%
[8]
  pEC50: 8.00

## CN1CCN(c2ccc(Nc3nc(Nc4ccc(F)cc4)c4ncn(CC5CC5)c4n3)cc2)CC1
[9]
  pIC50: 5.89

## CN1CCN(c2ccc(Nc3nc(Nc4cccc(F)c4)c4ncn(CC5CC5)c4n3)cc2)CC1
[9]
  pIC50: 6.18

## CN1CCN(c2ccc(Nc3nc(Nc4ccc(F)c(F)c4)c4ncn(CC5CC5)c4n3)cc2)CC1
[10]
  pIC50: 4.73

## C#C/C(=C\C(C)(C)CCCCOCCOCCOCCOCCOc1cccc2c1C(=O)N(C1CCC(=O)NC1=O)C2=O)C(=O)N1CCCC(n2nc(-c3ccc(Oc4ccccc4)cc3)c3c(N)ncnc32)C1 (stereo unspecified)
[7]
  Emax: 90%
[8]
  pEC50: 8.00

## Nc1ncnc2c1c(-c1ccc(Oc3ccccc3)cc1)nn2[C@@H]1CCCN(C(=O)c2cn(CCOCCOCCOCCNc3cccc4c3C(=O)N(C3CCC(=O)NC3=O)C4=O)nn2)C1 (stereo partly specified)
[11]
  pEC50: 7.52
